We go through eight compounds from ChEMBL document CHEMBL2331157, “Structure-activity relationships of 6-(aminomethylphenoxy)-benzoxaborole derivatives as anti-inflammatory agent” (Bioorg Med Chem Lett, 2013).

Data set [1] deals with PBMC. The data set is described as follows: Antiinflammatory activity in human PBMCs assessed as inhibition of LPS-induced IL1-beta release incubated for 15 mins prior to LPS challenge measured after 24 hrs by HTRF assay. It counts as functional, cell-based.
For data set [2], the system named is PBMC. The data set is described as follows: Antiinflammatory activity in human PBMCs assessed as inhibition of LPS-induced TNFalpha release incubated for 15 mins prior to LPS challenge measured after 24 hrs by HTRF assay. It counts as functional, cell-based. In general terms: TR-FRET usually uses a lanthanide donor and a delayed reading to cut background.
In data set [3] the test system is PBMC. The data set is described as follows: Antiinflammatory activity in human PBMCs assessed as inhibition of LPS-induced IL1-beta release at 100 uM incubated for 15 mins prior to LPS challenge measured after 24 hrs by HTRF assay relative to control. It counts as functional.
The test system of data set [4] is PBMC. Put plainly: Antiinflammatory activity in human PBMCs assessed as inhibition of LPS-induced IL6 release at 100 uM incubated for 15 mins prior to LPS challenge measured after 24 hrs by HTRF assay relative to control. It counts as functional.
The test system of data set [5] is PBMC. Put plainly: Antiinflammatory activity in human PBMCs assessed as inhibition of LPS-induced IL6 release incubated for 15 mins prior to LPS challenge measured after 24 hrs by HTRF assay. It counts as functional, cell-based.
The nature of data set [6]: AUC in CD1 mouse at 10 mg/kg, po. It counts as ADME, organism-based. Also noted: dose 10 mg/kg, route oral. To be noted: plasma.
Data set [7] deals with PBMC. The data set is described as follows: Antiinflammatory activity in human PBMCs assessed as inhibition of LPS-induced TNFalpha release at 100 uM incubated for 15 mins prior to LPS challenge measured after 24 hrs by HTRF assay relative to control. It counts as functional.
Data set [8] can be described thus: Cmax in CD1 mouse at 10 mg/kg, po. It counts as ADME, organism-based. Also on record: dose 10 mg/kg, route oral. To be noted: in vivo.
Data set [9] can be described thus: AUC in CD1 mouse at 5 mg/kg, iv. It counts as ADME, organism-based. Also noted: dose 5 mg/kg, route intravenous. The settings on record: plasma.
Data set [10] in a line: Tmax in CD1 mouse at 10 mg/kg, po. Also noted: dose 10 mg/kg, route oral. It counts as ADME, organism-based. To be noted: in vivo.
Data set [11] in a line: Terminal half life in CD1 mouse at 10 mg/kg, po. It counts as ADME, organism-based. Also noted: dose 10 mg/kg, route oral. The settings on record: in vivo, read-out: beta t1/2 (converted).
A short description of data set [12]: Clearance in CD1 mouse at 5 mg/kg, iv. It counts as ADME, organism-based. The settings on record: in vivo. Also on record: dose 5 mg/kg, route intravenous.
Data set [13] in a line: Oral bioavailability in CD1 mouse at 10 mg/kg. It counts as ADME, organism-based. The settings on record: in vivo.
Data set [14] in a line: Terminal half life in CD1 mouse at 5 mg/kg, iv. To be noted: in vivo, read-out: beta t1/2 (converted). Also on record: dose 5 mg/kg, route intravenous. It counts as ADME, organism-based.
The nature of data set [15]: Volume of distribution at steady state in CD1 mouse at 5 mg/kg, iv. It counts as ADME, organism-based. To be noted: in vivo, read-out: Vdss. Also noted: dose 5 mg/kg, route intravenous.
In data set [16] the test system is PBMC. Put plainly: Antiinflammatory activity in human PBMCs assessed as inhibition of LPS-induced IL6 release at 10 uM incubated for 15 mins prior to LPS challenge measured after 24 hrs by HTRF assay relative to control. It counts as functional.

With `Nc1cccc(Oc2ccc3c(c2)B(O)OC3)c1`, the IC50 in the data set on PBMC [1], with PBMC [2] and in the data set on PBMC [5] was more than 10 µM each time. The inhibition at 100 µM with PBMC [3] and in the data set on PBMC [4] was less than 40% in each case.

For `Cl.NCc1ccc(Oc2ccc3c(c2)B(O)OC3)c(F)c1`, the area under the curve (AUC) (as a rule, the area under the concentration-time curve, a measure of exposure) worked out at 533 ng·h/mL in data set [6] and 1740 ng·h/mL in data set [9]. For the same compound, the inhibition at 100 µM in the data set on PBMC [7], in the data set with PBMC [3] and in the data set with PBMC [4] was 80% each time. In addition, the highest level in data set [8] (Cmax) was 142 ng/mL. The values for the IC50 in the data set on PBMC [1], in the data set on PBMC [2] and in the data set on PBMC [5] were 0.043 µM, 0.041 µM and 0.033 µM, respectively. The Tmax (usually the time at which the peak concentration occurs) in [10] came out at 0.25 h. Further, the half-life in data set [11] was 2.43 h; in [14], 0.65 h. Further, in data set [12], the clearance (commonly the rate of elimination divided by the concentration) was 38 mL/min/kg. Besides, the bioavailability (usually dose-corrected exposure relative to a reference, in per cent) in data set [13] was 15%. Also, in data set [15], the Vd was determined as 2.14 L/kg.

Regarding `Cl.NCc1ccc(Oc2ccc3c(c2)B(O)OC3)c(Cl)c1`, the AUC in data set [6] is 2660 ng·h/mL; in data set [9] it was 2260 ng·h/mL. Also, the Cmax (in general, the highest concentration seen after dosing) in [8] stood at 1450 ng/mL. Moreover, in [10], the Tmax was 0.25 h. The half-life in data set [11] is 2.82 h; in [14] it was 1.39 h. In [12], this compound gave a clearance of 36.8 mL/min/kg. For the same compound, the bioavailability in [13] came out at 67%. For the same compound, the Vd in data set [15] worked out at 2.87 L/kg.

As for `OB1OCc2ccc(Oc3cccc(CN4CCOCC4)c3)cc21`, the values for the inhibition at 100 µM in the data set with PBMC [7], with PBMC [3] and with PBMC [4] were 80%, 40% and less than 40%, respectively. In addition, the IC50 (as a rule, the concentration at which inhibition is half-maximal) with PBMC [1] was 4.4 µM; with PBMC [2] it was 5.9 µM; in the data set on PBMC [5], more than 10 µM.

As for `CN1CCN(Cc2cccc(Oc3ccc4c(c3)B(O)OC4)c2)CC1`, the inhibition (usually the drop in the measured response relative to a control, in per cent) at 100 µM in the data set with PBMC [7] was less than 40%; with PBMC [3] it was 40%; with PBMC [4], less than 40%. Moreover, the figures for the IC50 in the data set with PBMC [1], with PBMC [2] and in the data set on PBMC [5] were 7.1 µM, more than 10 µM and more than 10 µM, respectively.

Turning to `C[C@H]1C[C@H]2[C@@H]3CCC4=CC(=O)C=C[C@]4(C)[C@@]3(F)[C@@H](O)C[C@]2(C)[C@@]1(O)C(=O)CCl` [CLOBETASOL], the inhibition at 100 µM in the data set with PBMC [7], in the data set with PBMC [3] and in the data set with PBMC [4] was 80% throughout. Also, the values for the IC50 in the data set on PBMC [1], in the data set with PBMC [2] and in the data set on PBMC [5] were 4.4 µM, 0.007 µM and 4.2 µM, respectively.

Consider `C[C@@H]1C[C@H]2[C@@H]3CCC4=CC(=O)C=C[C@]4(C)[C@@]3(F)[C@@H](O)C[C@]2(C)[C@@]1(O)C(=O)CO` [DEXAMETHASONE], for which the inhibition at 100 µM in the data set with PBMC [7] and with PBMC [3] was 80% in each case. Further, the values for the half-inhibitory concentration (IC50) in the data set on PBMC [1] and in the data set on PBMC [2] were 0.0095 µM and 0.017 µM, respectively. In the data set on PBMC [16], the inhibition at 10 µM was 43%.

With `C[S+]([O-])c1ccc(-c2nc(-c3ccc(F)cc3)c(-c3ccncc3)[nH]2)cc1` (stereo not drawn) [SB-203580], the inhibition at 100 µM in the data set on PBMC [7] is 80%; in the data set on PBMC [3], 80%; with PBMC [4] it was less than 40%. Moreover, the IC50 is 0.34 µM in the data set on PBMC [1], 1 µM in the data set on PBMC [2] and more than 10 µM in the data set with PBMC [5].
